# Results reported in US20220081389A1, “AMIDE COMPOUNDS AND PREPARATION METHOD THEREFOR AND USE THEREOF” (CAC NANTONG CHEMICAL CO., LTD., priority 2019, published 2022).
# Where two headings read alike, the source gives them in different places.
# What was measured:
# Chilo suppressalis = assay: Insecticidal activity test against Chilo suppressalis (rice stem dip); assay type: in vivo
# Procedure: (§1) Various kinds of pests were tested with the compounds of this invention. Unless otherwise specified, the preparation method of samples and definition of the mortality rate of the insects in the embodiments and this invention are as follows: the preparation method of samples is to weigh 10 mg of the compound and dissolve it in 1 mL DMF to prepare 10,000 ppm mother liquid, which is diluted to necessary concentration by 0.05% Tween-80 water, respectively. The mortality rate is the mortality rate of pests under the test concentration, whose calculating formula is: mortality rate (%)=Number of dead pests/total pests*100
# The rice was cultivated in a plastic pot with a diameter of 9 cm and a height of 10 cm. When the rice grew to 25 cm, the aerial part of robust and consistent rice seedlings was selectively cut. Their leaves were removed and their stems of about 8 cm were kept for use. Pour the solution prepared with compound of this invention into the Petri dish (about 40 mL) and dip the rice stems into the solution for 10 seconds. Take rice stems out and dry them in a cool environment. Put a wet cotton ball at the bottom of finger-like glass tube and 5 rice stems in each tube. Put 10 of 3rd-instar larvae of Chilo suppressa into each tube, which was repeated by 3 times. Seal the tubes with black cotton cloth and tighten them with rubber band. The tubes were placed in a illumination incubator at 28° C. and incubated in the dark (incubated without light). The dead number of Chilo suppressalis was investigated 3 days after treatment. The mortality was calculated.
# Spodoptera litura = assay: Insecticidal activity test against Spodoptera litura (leaf dip, cabbage leaf discs); assay type: in vivo; conditions: foliar; for mortality at 0.4 ppm: 3rd day after treatment; for mortality at 0.04 ppm / mortality at 0.1 ppm: 72 h, 3 d
# Procedure: as §1
# The leaf dip method was used to assay the insecticidal activity. Healthy and pesticide-untreated cabbage leaves was selected to prepare 1 cm of leaf discs by diameter. Dip the leaf discs into the solution prepared with compound of this invention for 10 seconds and dry them in a cool […] environment. Then place them in 24-well plate with 3 discs per pore. Put 10 of Spodoptera litura into each pore, which was repeated by 3 times. The 24-well plate was placed in an illumination incubator and incubated with 14 hL: 10 hD illumination at 25° C. The dead number of Spodoptera litura was investigated on the 3rd day after treatment, and the mortality was calculated.
# Mythimna separata = assay: Insecticidal activity test against Mythimna separata (leaf dip, maize seedlings); assay type: in vivo; conditions: foliar; for mortality at 0.04 ppm: 3rd day after treatment, read-out: insecticidal activity (mortality of Mythimna separate)
# Procedure: as §1
# (§2) The leaf dip method was used to assay the insecticidal activity. Cut above ground part of fresh maize seedlings (about 10 cm). Dip the maize seedlings into the solution prepared with compound of this invention for 10 seconds and dry them in a cool environment. Then cut the dry maize seedlings into 3-5 cm leaf sections and put 3 leaf sections into each petri dish. Put ten of 3th-instar larvae of Mythimna separatas into each dish, which was repeated by 3 times. Then the dishes were placed in an illumination incubator and incubated with 14 hL: 10 hD illumination at 25° C. Symptoms were investigated on the 1st, 2nd and 3rd day after treatment, and the mortality was calculated.
# Spodoptera frugiperda = assay: Insecticidal activity test against Spodoptera frugiperda (leaf dip, maize seedlings); assay type: in vivo; conditions: for mortality at 1 ppm / mortality at 0.1 ppm: Spodoptera frugiperda, foliar; for mortality at 1 ppm: read-out: insecticidal activity (mortality of Spodoptera frugiperda); for Mortality (%) against Spodoptera frugiperda, 1 d / Mortality (%) against Spodoptera frugiperda, 2 d / Mortality (%) against Spodoptera frugiperda, 3 d: 0.1 ppm, leaf dip, 3rd-instar larvae; for Mortality (%) against Spodoptera frugiperda, 1 d: 1st day after treatment; for Mortality (%) against Spodoptera frugiperda, 2 d: 2nd day after treatment; for Mortality (%) against Spodoptera frugiperda, 3 d: 3rd day after treatment
# Procedure: as §1
# as §2, with “Spodoptera frugiperda” for “Mythimna separatas”
# Aphis craccivora = assay: Insecticidal activity test against Aphis craccivora (broad bean leaf dip); assay type: in vivo
# Procedure: as §1
# Cut a single leaf of broad bean with stem and insert it into a glass jar filled with water (capacity of 20 ml). Five adult Aphis craccivoras were seeded onto each leaf, and covered with plastic cups with holes. The adult aphids were removed after 24 hours. Before the experiment, the base number was investigated and the single leaf with more than 15 nymphs aphids was selected for the experiment. Dip leaf of broad bean with nymphs aphids into the solution of test compound 10s, take out and dry them in a cool environment, 3 parallel repeats. Place the glass jars on the shelf of observation room and covered with plastic cups with holes. 20-25° C. with 14 hL: 10 hD illumination. The number of Aphis craccivora death and alive was investigated on the 3rd day after treatment, and the mortality was calculated.
# [1] = 3rd day after treatment, read-out: insecticidal activity (mortality of Chilo suppressalis)
# [2] = 72 h, 3 d, read-out: Mortality (%, 3 d) 1 ppm
# [3] = 72 h, 3 d, read-out: Mortality (%, 3 d) 2 ppm
# [4] = 24 h, 1 d, read-out: Mortality (%) 1 d
# [5] = 48 h, 2 d, read-out: Mortality (%) 2 d
# [6] = 72 h, 3 d, read-out: Mortality (%) 3 d
# [7] = Aphis craccivora, foliar, 40 ppm, 3rd day after treatment, read-out: insecticidal activity (mortality of Aphis craccivora)
# [8] = 24 h, read-out: Mortality (%) against Spodoptera frugiperda, 1 d
# [9] = 48 h, read-out: Mortality (%) against Spodoptera frugiperda, 2 d
# [10] = 72 h, read-out: Mortality (%) against Spodoptera frugiperda, 3 d
smiles,measurement,setting,value
"O=C(Nc1c(Br)cc(C(F)(C(F)(F)F)C(F)(F)F)cc1OC(F)F)c1cccc(N(CC2CC2)C(=O)c2ccccc2)c1F [Compound 1, N-(2-bromo-4-(perfluoropropan-2-yl)-6-(difluoromethoxy)phenyl)-3-(N-(cyclopropylmethyl)benzamido)-2-fluorobenzamide]",mortality at 1 ppm,Chilo suppressalis; [1],≥ 90%
same,mortality at 0.5 ppm,"Chilo suppressalis; 72 h, 3 d",76.7%
same,mortality at 1 ppm,Chilo suppressalis; [2],96.7%
same,mortality at 2 ppm,Chilo suppressalis; [3],100%
same,mortality at 0.4 ppm,Spodoptera litura,≥ 90%
same,mortality at 0.04 ppm,Mythimna separata,≥ 90%
same,mortality at 1 ppm,Spodoptera frugiperda,≥ 90%
N#Cc1ccc(C(=O)N(CC2CC2)c2cccc(C(=O)Nc3c(Br)cc(C(F)(C(F)(F)F)C(F)(F)F)cc3OC(F)F)c2F)cc1 [Compound 14],"Mortality (%) against Spodoptera frugiperda, 1 d",Spodoptera frugiperda,29.17%
same,"Mortality (%) against Spodoptera frugiperda, 2 d",Spodoptera frugiperda,79.17%
same,"Mortality (%) against Spodoptera frugiperda, 3 d",Spodoptera frugiperda,95.83%
"N#Cc1ccc(C(=O)N(CC2CC2)c2cccc(C(=O)Nc3c(Br)cc(C(C(F)(F)F)C(F)(F)F)cc3OC(F)F)c2F)cc1 [Compound 26, N-(2-bromo-6-(difluoromethoxy)-4-(1,1,1,3,3,3-hexafluoropropan-2-yl)phenyl)-3-(4-cyano-N-(cyclopropylmethyl)benzamido)-2-fluorobenzamide]",melting point,,133.1 to 135.5 °C
"O=C(Nc1c(Br)cc(C(F)(C(F)(F)F)C(F)(F)F)cc1OC(F)F)c1cccc(N(CC2CC2)C(=O)c2ccc(F)cc2)c1F [Compound 31, N-(2-bromo-6-(difluoromethoxy)-4-(perfluoropropan-2-yl)phenyl)-3-(N-(cyclopropylmethyl)-4-fluorobenzamido)-2-fluorobenzamide]",mortality at 1 ppm,Chilo suppressalis; [1],≥ 90%
same,mortality at 0.5 ppm,"Chilo suppressalis; 72 h, 3 d",83.3%
same,mortality at 1 ppm,Chilo suppressalis; [2],100%
same,mortality at 2 ppm,Chilo suppressalis; [3],100%
same,mortality at 0.4 ppm,Spodoptera litura,≥ 90%
same,mortality at 0.04 ppm,Mythimna separata,≥ 90%
same,mortality at 0.01 ppm,Mythimna separata; [4],13.3%
same,mortality at 0.01 ppm,Mythimna separata; [5],63.3%
same,mortality at 0.01 ppm,Mythimna separata; [6],70%
same,mortality at 40 ppm,Aphis craccivora; [7],≥ 90%
same,mortality at 0.1 ppm,Spodoptera frugiperda; [8],100%
same,mortality at 0.1 ppm,Spodoptera frugiperda; [9],100%
same,mortality at 0.1 ppm,Spodoptera frugiperda; [10],100%
same,mortality at 1 ppm,Spodoptera frugiperda,≥ 90%
O=C(Nc1c(Br)cc(C(F)(C(F)(F)F)C(F)(F)F)cc1OC(F)F)c1cccc(N(CC2CC2)C(=O)c2ccc(Cl)cc2)c1F [Compound 44],"Mortality (%) against Spodoptera frugiperda, 1 d",Spodoptera frugiperda,37.50%
same,"Mortality (%) against Spodoptera frugiperda, 2 d",Spodoptera frugiperda,62.50%
same,"Mortality (%) against Spodoptera frugiperda, 3 d",Spodoptera frugiperda,91.67%
O=C(Nc1c(Br)cc(C(F)(C(F)(F)F)C(F)(F)F)cc1C(F)(F)F)c1cccc(N(CC2CC2)C(=O)c2ccncc2)c1F [Compound 101],"Mortality (%, 3 d) 1 ppm","Aphis craccivora; 1 ppm, 3 d",39.11%
same,"Mortality (%, 3 d) 10 ppm","Aphis craccivora; 10 ppm, 3 d",83.26%
same,"Mortality (%, 3 d) 40 ppm","Aphis craccivora; 40 ppm, 3 d",100.00%
"O=C(Nc1c(Br)cc(C(F)(C(F)(F)F)C(F)(F)F)cc1C(F)(F)F)c1cccc(N(CC2CC2)C(=O)c2ccc(F)nc2)c1F [Compound 106, N-(3-((2-bromo-4-(perfluoropropan-2-yl)-6-(trifluoromethyl)phenyl)carbamoyl)-2-fluorophenyl)-N-(cyclopropylmethyl)-6-fluoronicotinamide]",mortality at 1 ppm,Chilo suppressalis; [1],≥ 90%
same,mortality at 0.4 ppm,Spodoptera litura,≥ 90%
same,mortality at 0.04 ppm,Mythimna separata,≥ 90%
same,mortality at 0.1 ppm,Spodoptera frugiperda; [8],41.7%
same,mortality at 0.1 ppm,Spodoptera frugiperda; [9],62.5%
same,mortality at 0.1 ppm,Spodoptera frugiperda; [10],95.8%
same,mortality at 1 ppm,Spodoptera frugiperda,≥ 90%
"O=C(Nc1c(Br)cc(C(F)(C(F)(F)F)C(F)(F)F)cc1OC(F)F)c1cccc(N(CC2CC2)C(=O)c2ccc(F)nc2)c1F [Compound 118, N-(3-((2-bromo-6-(difluoromethoxy)-4-(perfluoropropan-2-yl)phenyl)carbamoyl)-2-fluorophenyl)-N-(cyclopropylmethyl)-6-fluoronicotinamide]",mortality at 1 ppm,Chilo suppressalis; [1],≥ 90%
same,mortality at 0.4 ppm,Spodoptera litura,≥ 90%
same,mortality at 0.04 ppm,Spodoptera litura,66.7%
same,mortality at 0.1 ppm,Spodoptera litura,95.8%
same,mortality at 0.04 ppm,Mythimna separata,≥ 90%
same,mortality at 40 ppm,Aphis craccivora; [7],≥ 90%
same,mortality at 0.1 ppm,Spodoptera frugiperda; [8],29.2%
same,mortality at 0.1 ppm,Spodoptera frugiperda; [9],66.7%
same,mortality at 0.1 ppm,Spodoptera frugiperda; [10],91.7%
same,mortality at 1 ppm,Spodoptera frugiperda,≥ 90%
O=C(Nc1c(Br)cc(C(F)(C(F)(F)F)C(F)(F)F)cc1OC(F)F)c1cccc(N(CC2CC2)C(=O)c2ccnc(Cl)c2)c1F [Compound 119],"Mortality (%) against Spodoptera frugiperda, 1 d",Spodoptera frugiperda,54.17%
same,"Mortality (%) against Spodoptera frugiperda, 2 d",Spodoptera frugiperda,79.17%
same,"Mortality (%) against Spodoptera frugiperda, 3 d",Spodoptera frugiperda,91.67%
O=C(Nc1c(Br)cc(C(F)(C(F)(F)F)C(F)(F)F)cc1OC(F)F)c1cccc(N(CC2CC2)C(=O)c2ccnc(F)c2)c1F [Compound 120],"Mortality (%) against Spodoptera frugiperda, 1 d",Spodoptera frugiperda,58.33%
same,"Mortality (%) against Spodoptera frugiperda, 2 d",Spodoptera frugiperda,100%
same,"Mortality (%) against Spodoptera frugiperda, 3 d",Spodoptera frugiperda,100%
"CC(C1CC1)N(C(=O)c1ccnc(Cl)c1)c1cccc(C(=O)Nc2c(Br)cc(C(F)(C(F)(F)F)C(F)(F)F)cc2C(F)(F)F)c1F (stereo not drawn) [Compound 124, N-(3-((2-bromo-4-(perfluoropropan-2-yl)-6-(trifluoromethyl)phenyl)carbamoyl)-2-fluorophenyl)-2-chloro-N-(1-cyclopropylethyl)isonicotinamide]",mortality at 2 ppm,Chilo suppressalis; [1],≥ 90%
"CCN(C(=O)c1ccc(F)cc1)c1cccc(C(=O)Nc2c(Br)cc(C(F)(C(F)(F)F)C(F)(F)F)cc2OC(F)F)c1F [KC1, reference compound]",mortality at 0.01 ppm,Mythimna separata; [4],6.67%
same,mortality at 0.01 ppm,Mythimna separata; [5],16.7%
same,mortality at 0.01 ppm,Mythimna separata; [6],20%
"CCN(C(=O)c1ccncc1)c1cccc(C(=O)Nc2c(Br)cc(C(F)(C(F)(F)F)C(F)(F)F)cc2OC(F)F)c1F [KC2, reference compound]",mortality at 0.1 ppm,Spodoptera frugiperda; [8],0%
same,mortality at 0.1 ppm,Spodoptera frugiperda; [9],8.33%
same,mortality at 0.1 ppm,Spodoptera frugiperda; [10],20.8%
"O=C(Nc1c(Br)cc(C(F)(C(F)(F)F)C(F)(F)F)cc1OC(F)(F)F)c1cccc(N(CC2CC2)C(=O)c2ccccc2)c1F [KC3, reference compound]",mortality at 0.5 ppm,"Chilo suppressalis; 72 h, 3 d",20%
same,mortality at 1 ppm,Chilo suppressalis; [2],80%
same,mortality at 2 ppm,Chilo suppressalis; [3],96.7%
same,mortality at 0.1 ppm,Spodoptera frugiperda; [8],0%
same,mortality at 0.1 ppm,Spodoptera frugiperda; [9],0%
same,mortality at 0.1 ppm,Spodoptera frugiperda; [10],4.17%
"O=C(Nc1c(Br)cc(C(F)(C(F)(F)F)C(F)(F)F)cc1C(F)(F)F)c1cccc(N(CC2CC2)C(=O)c2ccc(F)cc2)c1F [KC4, reference compound]",mortality at 0.04 ppm,Spodoptera litura,8.83%
same,mortality at 0.1 ppm,Spodoptera litura,75%
same,mortality at 1 ppm,"Aphis craccivora; Aphis craccivora, foliar, 72 h, 1 ppm, 3 d",0%
same,mortality at 10 ppm,"Aphis craccivora; Aphis craccivora, foliar, 72 h, 10 ppm, 3 d",47.1%
same,mortality at 40 ppm,"Aphis craccivora; Aphis craccivora, foliar, 72 h, 40 ppm, 3 d, read-out: Mortality (%, 3 d) 40 ppm",65.2%
